Results reported in PMC7478165, “Derivatisation of parthenolide to address chemoresistant chronic lymphocytic leukaemia” (MedChemComm, 2019).
Read-outs that look alike come from different tables or passages of the source.

Columns and labels:
MEC1 CLL cell line = experiment: alamarBlue assay, in vitro antileukaemic activity against MEC1 CLL cell line; assay type: cell-based; details: for LipE pEC50–clog P: MEC1 cell line pEC50 minus calculated log P
From the text: Defective p53-signalling increases genomic instability and drives tumour progression. A high frequency of p53 inactivation is found in relapsed, treatment-resistant, high risk CLL.[30] […] Owing to resource availability a subset of up to ten of these compounds was prioritised for further investigation. Compounds 2d, 2e, 2j, 2aa, 5a, 5d, 5e, 5f, 5ab and 6b were selected on the basis of reasons including ease of synthetic access, diversity across the chemical space probed and novelty. Those prepared under conditions (i)Scheme 1 (2d, 5a and 6b) were available on a scale and in a purity to directly permit follow-up studies, whereas compounds prepared under conditions (ii)Scheme 1 were prepared on a small scale so were resynthesised. These seven compounds (2e, 2j, 2aa, 5d, 5e, 5f and 5ab) were isolated on >30 mg scale in high purity and progressed to more following studies.
Following the identification of 5f as the most promising drug-like derivative of PTL from the aforementioned parallel/high-throughput screening, the anti-leukaemic activity of 5f was tested once more and compared directly with that of PTL (1) and DMAPT (2a), which serve as comparators and positive controls.
Amine 7 was successfully prepared as follows: 4-Piperidinecarboxylic acid was N-Boc protected to deliver 8 in 92% yield.[43] In order to confidently assign the NMR spectra of compound 8 J-MOD, HSQC and ^1H–^1H COSY were helpful, particularly in establishing that a broad resonance in the proton-decoupled ^13C NMR spectrum, centred on 42.8 ppm, corresponds to the ring-carbons bonded to nitrogen. The carboxylic acid of 8 was converted to the corresponding ethyl-3-keto-propanoate 9 in 24% yield. Conversion of 9 to the N-Boc protected congener 10, was achieved by treatment with acetamidine hydrochloride and potassium carbonate, furnishing 10 in 77% yield. Treatment with trifluoroacetic acid delivered desired compound 7 in 99% yield for the Boc-deprotection step (scale 200 mg, 17% over four linear steps). Thus, evidencing accessibility of amine 7 and with it in hand, it was timely to probe any activity arising from the amine alone. MEC1 sensitivity to 1, 5f and 7 was compared in parallel using the alamarBlue® assay (Fig. 6). […] A pre-peer-reviewed preprint of this article was deposited and may be viewed elsewhere.[44]

[1] = Stability in aqueous solution, pH 7.4; assay type: physicochemical; details: for half-life: pH 7.4, read-out: Stability pH 7.4 T1/2; for stability in aqueous solution: result in words
Procedure: Compounds 2d, 2e, 2f, 2g, 2j, 2aa, 5a, 5d, 5e, 5f, 5ab and 6b were subjected to in vitro DMPK testing. […] The other three (2d, 2j and 2aa) were not retained for further investigation due to poor stability (T1/2 at pH 7.4: 13, 107 and 76 min, Table 1, entries 1, 3 and 4 respectively). One obvious aspect contributing to observed stability is the propensity for PTL derivatives of this type to undergo a retro-amination (reverse-Michael-type mechanism), indeed this reverse reaction is often claimed as a pro-drug mode of action.[29a],[33] […] It is a reasonable assertion that activity observed for these unstable compounds could well be ascribed to free PTL generated rapidly in the assay.

[2] = Hepatocyte stability assay (mouse); assay type: in vitro ADME; details: mouse hepatocytes; for half-life: read-out: Hepatocyte stability (mouse) T1/2
[3] = Caco-2 permeability assay; assay type: in vitro ADME; details: for Papp A→B / Papp B→A / efflux ratio: human; for Papp A→B / Papp B→A: Caco-2; for Papp A→B: pH 7.4, A to B; for Papp B→A: pH 7.4, B to A; for efflux ratio: Caco-2, pH 7.4
[4] = Microsomal stability assay (mouse); details: for Mouse microsomal stability: mouse microsomes; for microsomal CLint: mouse, liver microsomes
hERG K+ channel = hERG K+ channel (Homo sapiens, UniProt Q12809); experiment: hERG liability assay, IonWorks patch clamp electrophysiology; assay type: cell-based; details: for IC50: eight-point curves, maximum test concentration 100 μM; for inhibition at 100 µM: read-out: hERG inhibition at top test concentration
Procedure: Early toxicological screening is an important step in derisking drug discovery programmes and is increasingly accessible.[39]
Three PTL derivatives (2a, 5a and 5f) were tested for inhibition of the hERG K^+ channel (against cisapride as a positive control) using IonWorks patch clamp electrophysiology. […] Eight-point concentration-response curves were generated using three-fold serial dilutions from a maximum final test concentration of 100 μM, results are summarised in Fig. S6. ^†

[5] = Murine intravenous PK study; assay type: in vivo; details: IV 1 mg kg^–1; for Vd / clearance / half-life: blood, mouse; for Vd: read-out: Mouse PK (IV) VSS; for clearance: read-out: Mouse PK (IV) Cl; for half-life: read-out: Mouse PK (IV) T1/2 (converted)
Procedure: In order to determine 5a and 5f are suitable for use as pharmaceutical agents their pharmacokinetic (PK) parameters were next probed. A murine intravenous PK study of compounds 5a and 5f at 1.0 mg kg^–1 was conducted and their concentrations in blood were measured with time (Fig. 4(a)i and (b)i and Table 2).

[6] = Murine oral (PO) PK study; assay type: in vivo; details: for Tmax / bioavailability / Cmax / half-life: in vivo, mouse; for bioavailability: read-out: Mouse PK (PO) F%; for half-life: PO 10 mg kg^–1, as worded in text
Procedure: The in vivo oral bioavailability of compounds 5a and 5f was compared in a murine PK study at 10 mg kg^–1 (Fig. 4(a)ii and (b)ii and Table 2). In keeping with the intravenous findings, the murine PO half-life of 5f was twice as long as 5a (1.0 versus 0.5 hours, Table 2) and the Cmax attained by 5f was approximately 40% higher than that achieved by 5a (404 versus 283 ng mL^–1). […] Compound 5f was therefore identified as a promising potential new agent with desirable pharmacological properties towards a therapy for drug-resistant CLL.

[7] = MEC1 cell line, alamarBlue assay, library screen, read-out: EC50 ave.
[8] = first of two columns headed A to B
[9] = second of two columns headed A to B
[10] = Homo sapiens, MEC1, MEC1 cells, alamarBlue, direct comparison of 5f with PTL and DMAPT, n = 5, read-out: EC50
[11] = Homo sapiens, MEC1, MEC1 cell line, alamarBlue assay, library screen, read-out: EC50 ave.
[12] = Homo sapiens, MEC1, MEC1 cell line, read-out: pEC50 (converted)

Chain of hERG K+ channel (Q12809 whole entry): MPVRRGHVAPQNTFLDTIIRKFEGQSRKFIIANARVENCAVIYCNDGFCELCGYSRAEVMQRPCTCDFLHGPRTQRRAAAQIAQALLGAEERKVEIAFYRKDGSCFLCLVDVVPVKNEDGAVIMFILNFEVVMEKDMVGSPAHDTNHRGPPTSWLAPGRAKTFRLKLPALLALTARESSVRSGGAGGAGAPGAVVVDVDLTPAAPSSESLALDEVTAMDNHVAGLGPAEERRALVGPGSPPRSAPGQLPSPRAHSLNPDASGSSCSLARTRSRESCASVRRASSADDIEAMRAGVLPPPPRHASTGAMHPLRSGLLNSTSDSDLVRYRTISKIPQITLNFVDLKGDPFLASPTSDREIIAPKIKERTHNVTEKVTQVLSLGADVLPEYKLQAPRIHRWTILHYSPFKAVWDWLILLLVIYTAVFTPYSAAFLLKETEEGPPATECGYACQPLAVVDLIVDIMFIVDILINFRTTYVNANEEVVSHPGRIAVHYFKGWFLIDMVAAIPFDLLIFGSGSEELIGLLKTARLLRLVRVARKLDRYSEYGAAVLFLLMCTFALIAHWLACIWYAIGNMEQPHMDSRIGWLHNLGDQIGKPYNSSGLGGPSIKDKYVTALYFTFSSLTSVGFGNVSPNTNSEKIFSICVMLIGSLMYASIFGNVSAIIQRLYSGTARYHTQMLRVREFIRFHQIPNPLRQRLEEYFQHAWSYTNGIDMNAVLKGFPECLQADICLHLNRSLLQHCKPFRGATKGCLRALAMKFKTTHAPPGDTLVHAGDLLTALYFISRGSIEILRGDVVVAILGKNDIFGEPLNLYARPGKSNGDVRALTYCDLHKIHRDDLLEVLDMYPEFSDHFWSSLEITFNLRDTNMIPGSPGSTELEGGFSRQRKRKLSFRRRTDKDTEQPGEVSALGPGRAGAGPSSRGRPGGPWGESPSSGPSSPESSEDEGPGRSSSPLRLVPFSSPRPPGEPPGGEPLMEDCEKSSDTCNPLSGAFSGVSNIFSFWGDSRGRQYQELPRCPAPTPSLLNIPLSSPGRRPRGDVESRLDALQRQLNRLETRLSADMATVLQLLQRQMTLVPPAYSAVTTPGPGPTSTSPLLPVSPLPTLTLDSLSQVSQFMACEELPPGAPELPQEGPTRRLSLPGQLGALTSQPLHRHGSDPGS

| Structure (SMILES) | LipE pEC50–clog P (MEC1 CLL cell line) | EC50 (MEC1 CLL cell line; [7]) [µM] | half-life [1] [min] | Hepatocyte stability (mouse) CLint [2] | half-life [2] [min] | Papp A→B [3] [×10⁻⁶ cm/s] | Papp B→A [3] [×10⁻⁶ cm/s] | Mouse microsomal stability [4, 8] | Mouse microsomal stability [4, 9] | inhibition at 100 µM (hERG K+ channel; human) [%] | Mouse PK (IV) UC (0-inf) [5] [ng h mL^–1] | Mouse PK (PO) UC (0-inf) ([6]; PO 10 mg kg^–1) [ng h mL^–1] | clearance [5] [mL/min/kg] | half-life [5] [min] | Cmax ([6]; PO 10 mg kg^–1) [ng/mL] | EC50 (MEC1 CLL cell line; [11]) [µM] | efflux ratio [3] | further results |
| --- | --- | --- | --- | --- | --- | --- | --- | --- | --- | --- | --- | --- | --- | --- | --- | --- | --- | --- |
| C/C1=C\CC[C@@]2(C)O[C@@H]2[C@H]2OC(=O)[C@@H](CN3CCC(c4cc(O)nc(C)n4)CC3)[C@@H]2CC1 [C00008] | 3.69 | 7.7 | > 120 | 22.0 μL min^–1 per million cells | 64 | 2.7 | 2.8 | 18 | 77 |  |  |  |  |  |  |  |  | Caco-2 pH 7.4 Efflux ratio [3]: 1.1 |
| C/C1=C\CC[C@@]2(C)O[C@@H]2[C@H]2OC(=O)[C@@H](CN[C@@H](Cc3ccccc3)C(=O)O)[C@@H]2CC1 [C00010] | 3.66 | 13.5 | > 120 | 16.0 μL min^–1 per million cells | 88 | 1.5 | 4.2 | 9 | 160 |  |  |  |  |  |  |  |  | Caco-2 pH 7.4 Efflux ratio [3]: 2.7 |
| C/C1=C\CC[C@@]2(C)O[C@@H]2[C@H]2OC(=O)[C@@H](CN(C)C)[C@@H]2CC1 [DMAPT, dimethyl amino-PTL, reference compound] | 3.19 |  |  |  |  |  |  |  |  | 40 |  |  |  |  |  |  |  | EC50 (MEC1 CLL cell line; [10]): 5.6 µM; IC50 (hERG K+ channel): > 100 µM |
| C/C1=C\CC[C@@]2(C)O[C@@H]2[C@H]2OC(=O)[C@@H](CN3CCC(c4cc(O)nc(C)n4)CC3)[C@@H]2CC1 [C00012] |  | 7.7 |  |  |  |  |  |  |  |  | 289 | 1696 |  |  |  |  |  | Mouse PK (IV) Cl [5]: 58 mL min^–1 kg^–1; Mouse PK (IV) T1/2 [5]: 1.14 h; Vd [5]: 4.62 L/kg; Mouse PK (PO) Cmax ([6]; PO 10 mg kg^–1): 404 ng mL^–1; Tmax ([6]; PO 10 mg kg^–1): 60 min; bioavailability ([6]; PO 10 mg kg^–1): 58.5% |
| C/C1=C\CC[C@@]2(C)O[C@@H]2[C@H]2OC(=O)[C@@H](CN3CCCC3)[C@@H]2CC1 [C00011] |  |  |  |  |  |  |  |  |  |  | 80.5 | 711 | 207 | 39.6 | 283 |  |  | Vd [5]: 11.6 L/kg; Tmax ([6]; PO 10 mg kg^–1): 30 min; bioavailability ([6]; PO 10 mg kg^–1): 95.8% |
| C/C1=C\CC[C@@]2(C)O[C@@H]2[C@H]2OC(=O)[C@@H](CN3CCC(c4cc(O)nc(C)n4)CC3)[C@@H]2CC1 [Compound 5f] | 3.69 | 7.7 |  |  |  |  |  |  |  | 24 | 289 | 1696 | 58 | 68.4 | 404 | < 15 | 1.1 | EC50 (MEC1 CLL cell line; [12]): 7.76 µM; EC50 (MEC1 CLL cell line; Homo sapiens, MEC1, MEC1 cells, alamarBlue, 1, 5f and 7 compared in parallel, CalcuSyn, read-out: EC50): 4.3 µM; EC50 (MEC1 CLL cell line; [10]): 4.5 µM; effect of NAC pre-treatment on activity (MEC1 CLL cell line; MEC1 cells, pre-treatment with N-acetylcysteine (NAC)): abrogated activity; stability in aqueous solution [1]: greater than two hours; half-life [6]: 60 min; hERG liability flag (hERG K+ channel): inactive; IC50 (hERG K+ channel; human): > 100 µM; microsomal CLint [4]: 18 µL/min/mg |
| CC1=CCCC2(C)OC2C2OC(=O)C(CN3CCCC3)C2CC1 (stereo not shown) [Compound 5a] | 2.35 | 7.7 |  |  |  |  |  |  |  | 45 | 80.5 | 711 | 207 | 39.6 | 283 | < 15 | 1 | EC50 (MEC1 CLL cell line; [12]): 7.76 µM; stability in aqueous solution [1]: greater than two hours; half-life [6]: 30 min; IC50 (hERG K+ channel): > 100 µM; microsomal CLint [4]: 19 µL/min/mg |
| C/C1=C\CC[C@@]2(C)O[C@@H]2[C@H]2OC(=O)[C@@H](CN3CCCC3)[C@@H]2CC1 [C00005] | 2.35 |  | > 120 | 22.0 μL min^–1 per million cells | 65 | 15.9 | 16.2 | 19 | 75 |  |  |  |  |  |  | 7.7 | 1 |  |
